Data on 10 compounds can be found in ChEMBL document CHEMBL2311349, “Evidence for a new binding mode to GSK-3: allosteric regulation by the marine compound palinurin” (Eur J Med Chem, 2013).

Activity calls are given as the source filed them. No cut-off for these calls is given here.

Series [1] deals with T1, Glycogen synthase kinase-3 beta (Homo sapiens, UniProt P49841). The series is described as follows: Inhibition of human recombinant GSK-3beta using GS2 peptide as substrate and [gamma33P]-ATP after 30 mins by scintillation counting.
Target sequence in this assay (P49841 whole entry): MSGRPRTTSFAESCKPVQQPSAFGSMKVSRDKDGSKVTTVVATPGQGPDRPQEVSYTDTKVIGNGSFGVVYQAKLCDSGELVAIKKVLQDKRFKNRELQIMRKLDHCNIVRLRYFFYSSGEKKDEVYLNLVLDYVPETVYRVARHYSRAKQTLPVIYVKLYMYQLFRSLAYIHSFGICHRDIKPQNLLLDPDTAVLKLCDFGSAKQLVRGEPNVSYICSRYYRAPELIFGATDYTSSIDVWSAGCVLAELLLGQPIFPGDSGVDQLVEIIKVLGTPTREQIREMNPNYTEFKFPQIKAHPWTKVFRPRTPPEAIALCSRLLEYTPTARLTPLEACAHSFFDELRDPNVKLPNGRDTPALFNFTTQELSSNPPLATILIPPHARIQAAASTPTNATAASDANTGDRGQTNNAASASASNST
The target in series [2] is T1, Glycogen synthase kinase-3 beta. The series is described as follows: Inhibition of human recombinant GSK-3beta using GS2 peptide as substrate and [gamma33P]-ATP at 50 uM after 30 mins by scintillation counting.
Target sequence in this assay (P49841 whole entry, looked up): as the sequence (P49841 whole entry) above
Series [3] shares this target. The settings on record: SH-SY5Y, 15 to 200 uM.
Target sequence in this assay (P49841 whole entry, looked up): as the sequence (P49841 whole entry) above
Description: Inhibition of GSK-3beta in human SH-SY5Y cells assessed as reduction of tau phosphorylation at 15 to 200 uM after 18 hrs by ELISA sandwich method
Series [4] in a line: Cytotoxicity against human SH-SY5Y cells assessed as intracellular LDH level after 18 hrs. In kind it is cell-based.
Series [5] concerns the target Casein kinase II (Homo sapiens, UniProt P19784+P67870+P68400). In words: (§1) Inhibition of human recombinant CK2 using GS2 peptide as substrate and [gamma33P]-ATP after 30 mins by scintillation counting. In kind it is protein-complex assay.
Series [6] deals with Casein kinase II (Homo sapiens, UniProt P67870+P68400+P19784). The series is described as §1. In kind it is protein-complex assay.
Chain of Casein kinase II (Homo sapiens, UniProt P67870+P68400+P19784) (P67870 whole entry): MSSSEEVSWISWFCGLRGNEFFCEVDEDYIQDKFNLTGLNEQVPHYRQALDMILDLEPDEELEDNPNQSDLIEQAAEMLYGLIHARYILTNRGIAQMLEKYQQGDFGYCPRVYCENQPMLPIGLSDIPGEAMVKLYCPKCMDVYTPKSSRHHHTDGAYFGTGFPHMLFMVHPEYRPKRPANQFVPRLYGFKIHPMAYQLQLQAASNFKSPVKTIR
Chain of Casein kinase II (Homo sapiens, UniProt P67870+P68400+P19784) (P68400 whole entry): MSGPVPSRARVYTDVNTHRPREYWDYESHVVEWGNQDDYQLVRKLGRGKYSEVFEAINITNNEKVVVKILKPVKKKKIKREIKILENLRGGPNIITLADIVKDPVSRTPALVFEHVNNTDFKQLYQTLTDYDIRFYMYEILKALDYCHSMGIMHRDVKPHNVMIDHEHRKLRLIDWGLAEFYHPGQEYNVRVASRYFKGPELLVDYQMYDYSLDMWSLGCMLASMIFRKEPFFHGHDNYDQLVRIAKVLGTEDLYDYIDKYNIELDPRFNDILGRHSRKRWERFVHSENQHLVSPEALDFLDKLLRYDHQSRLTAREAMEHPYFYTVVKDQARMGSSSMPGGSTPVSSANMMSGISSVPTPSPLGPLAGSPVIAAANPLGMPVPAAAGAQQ
Chain of Casein kinase II (Homo sapiens, UniProt P67870+P68400+P19784) (P19784 whole entry): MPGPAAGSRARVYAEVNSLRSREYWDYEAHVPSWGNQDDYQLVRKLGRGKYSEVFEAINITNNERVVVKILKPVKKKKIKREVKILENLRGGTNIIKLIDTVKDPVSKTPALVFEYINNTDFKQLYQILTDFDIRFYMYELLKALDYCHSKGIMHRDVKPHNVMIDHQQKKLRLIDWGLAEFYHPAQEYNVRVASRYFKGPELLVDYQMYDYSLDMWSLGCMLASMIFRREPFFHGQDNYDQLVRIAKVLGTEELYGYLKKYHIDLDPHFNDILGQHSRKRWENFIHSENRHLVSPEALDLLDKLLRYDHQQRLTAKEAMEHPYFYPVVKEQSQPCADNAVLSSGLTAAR
A short description of series [7]: Inhibition of human recombinant MAPK using […] as substrate and [gamma33P]-ATP after 15 mins by scintillation counting.
Series [8] concerns the target Cyclin-dependent kinase 1 (Homo sapiens, UniProt P06493). The series is described as follows: Inhibition of human recombinant CDK1 using histone H1 as substrate and [gamma33P]-ATP after 15 mins by scintillation counting.
Series [9] deals with Cyclin-dependent kinase 5 (Homo sapiens, UniProt Q00535). The series is described as follows: Inhibition of human recombinant CDK5 using histone H1 as substrate and [gamma33P]-ATP after 20 mins by scintillation counting.
Chain of Cyclin-dependent kinase 5 (Q00535 whole entry): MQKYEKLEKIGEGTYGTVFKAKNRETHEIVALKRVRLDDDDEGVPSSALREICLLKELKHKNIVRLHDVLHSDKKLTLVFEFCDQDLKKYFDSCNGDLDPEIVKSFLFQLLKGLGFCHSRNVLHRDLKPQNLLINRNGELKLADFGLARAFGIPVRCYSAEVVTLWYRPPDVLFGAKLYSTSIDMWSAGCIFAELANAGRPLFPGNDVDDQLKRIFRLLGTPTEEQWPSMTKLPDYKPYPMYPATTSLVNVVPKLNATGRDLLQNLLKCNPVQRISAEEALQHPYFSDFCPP
For series [10], the target named is Glycogen synthase kinase-3 alpha (Homo sapiens, UniProt P49840). The series is described as follows: Inhibition of human recombinant GSK-3alpha using GS2 peptide as substrate and [gamma33P]-ATP after 12 mins by scintillation counting.
Chain of Glycogen synthase kinase-3 alpha (P49840 whole entry): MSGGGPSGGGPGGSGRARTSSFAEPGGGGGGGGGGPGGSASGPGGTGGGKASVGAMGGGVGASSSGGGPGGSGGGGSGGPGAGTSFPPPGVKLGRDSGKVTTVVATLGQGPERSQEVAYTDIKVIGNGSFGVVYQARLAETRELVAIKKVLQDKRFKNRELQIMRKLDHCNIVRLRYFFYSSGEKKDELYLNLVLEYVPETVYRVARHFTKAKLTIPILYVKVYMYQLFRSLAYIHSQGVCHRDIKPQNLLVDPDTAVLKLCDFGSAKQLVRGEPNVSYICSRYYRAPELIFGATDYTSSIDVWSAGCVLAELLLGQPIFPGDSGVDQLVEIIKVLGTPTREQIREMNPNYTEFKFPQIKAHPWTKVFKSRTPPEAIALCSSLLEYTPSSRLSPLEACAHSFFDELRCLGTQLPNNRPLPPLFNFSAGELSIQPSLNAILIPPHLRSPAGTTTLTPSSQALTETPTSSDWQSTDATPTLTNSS

Chain of Cyclin-dependent kinase 1 (P06493 whole entry): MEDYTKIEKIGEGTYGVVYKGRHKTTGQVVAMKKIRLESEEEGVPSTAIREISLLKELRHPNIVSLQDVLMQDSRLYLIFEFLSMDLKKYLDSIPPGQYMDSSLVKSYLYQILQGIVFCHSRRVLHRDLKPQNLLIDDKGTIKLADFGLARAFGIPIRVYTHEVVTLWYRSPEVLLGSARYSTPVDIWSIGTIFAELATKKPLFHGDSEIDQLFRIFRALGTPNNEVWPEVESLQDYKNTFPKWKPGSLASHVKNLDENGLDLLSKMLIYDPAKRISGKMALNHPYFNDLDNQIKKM
Chain of Casein kinase II (Homo sapiens, UniProt P19784+P67870+P68400) (P67870 whole entry): as the sequence (P67870 whole entry) above
Chain of Casein kinase II (Homo sapiens, UniProt P19784+P67870+P68400) (P68400 whole entry): as the sequence (P68400 whole entry) above
Chain of Casein kinase II (Homo sapiens, UniProt P19784+P67870+P68400) (P19784 whole entry): as the sequence (P19784 whole entry) above

In the case of `CCCCCCCCCC(=O)OC[C@H](O)[C@H]1OC(=O)C(O)=C1O`, the IC50 in [1] (read-out: IC50) stood at 6.1 µM. In [2], the inhibition (as a rule, the relative decrease from the control value, in per cent) came to 86%.

With `CC1=C(O)[C@@H](C/C(C)=C/CCC(C)/C=C/C=C(\C)CCCc2ccoc2)OC1=O` (stereo in doubt; B), the inhibition entry in series [3] is “Active”.

For `CC1=C(O)/C(=C/[C@H](C)CC/C=C(/C)CCCc2coc(Cc3ccoc3)c2)OC1=O` [IRCININ 2], in [1] (read-out: IC50), the IC50 was determined as 2.3 µM.

For `O=C1O[C@H]([C@@H](O)CO)C(O)=C1O`, the inhibition in series [2] was 80%.

Turning to `CC1=C(O)[C@@H](C/C(C)=C/CCC(C)/C=C/C=C(\C)CCCc2ccoc2)OC1=O` (stereo in doubt; B) [PALINURIN], in series [4], the Activity entry is recorded as “Non-toxic”. Besides, the IC50 in [1] (read-out: IC50) was 1.9 µM.

Take `CCCCCCCCCCCCCC(=O)OC[C@H](O)[C@H]1OC(=O)C(O)=C1O`: the values for the IC50 in [1] (read-out: IC50) and in series [1] (read-out: pIC50 (converted)) were above 5.8 µM and 5.75 µM, respectively.

Turning to `CC1=C(O)[C@@H](C/C(C)=C/CCC(C)/C=C/C=C(\C)CCCc2ccoc2)OC1=O` (stereo in doubt; A), in series [3], the inhibition entry was “Active”.

For the compound `CCCCCCCC(=O)OC[C@H](O)[C@H]1OC(=O)C(O)=C1O`, the IC50 is above 50 µM in series [1] (read-out: IC50) and above 50.1 µM in [1] (read-out: pIC50 (converted)). The inhibition in series [2] worked out at 65%.

`CC1=C(O)[C@@H](C/C(C)=C/CCC(C)/C=C/C=C(\C)CCCc2ccoc2)OC1=O` (stereo in doubt; A) [PALINURIN]: the IC50 at Casein kinase II [5] was above 100 µM; on Casein kinase II [6], above 100 µM; in series [7], above 100 µM; in [8] (read-out: IC50), above 100 µM; in [8] (read-out: pIC50 (converted)), above 100 µM; in series [9] (read-out: IC50), above 25 µM. Also, the values for the IC50 in series [9] (read-out: pIC50 (converted)), in series [10] and in series [1] (read-out: IC50) were above 25.1 µM, 1.6 µM and 2.6 µM, respectively. Also, the pIC50 – broadly, the IC50 on a negative log10 scale, so that one unit is a factor of ten – in series [7] is below 4.

Turning to `CC1=C(O)/C(=C/[C@H](C)CCC/C(C)=C/CCc2coc(Cc3ccoc3)c2)OC1=O` [IRCININ 1], in series [1] (read-out: IC50), the IC50 is 0.8 µM.
